Data: patent US12582688B2, “Compositions for the treatment of hypopigmentation” (University of Pretoria, priority 2021, dated 2026)
Where no end group is shown, it is not given here.

Tests used:
[1] = tested on: B16-F10 mouse melanocytes; assay: Melanin production (intracellular and extracellular) in B16-F10 mouse melanocytes; format: cell-based; conditions: B16F10 cells, 72 hours; A. linearis at 500 μg/ml (highest concentration tested)
Protocol: Cultured B16F10 mouse melanocytes (passage number 6) were trypsinized (0.25% trypsin and 0.1% EDTA at 37° C. for 5-10 min). Cells (2×10^4 cells/well in 1.9 ml of MEM) were inoculated into 24-well plates using a pipette (FALCON 353046, Becton Dickinson Labware, NJ, U.S.A.), and incubated for 24 hours at 37° C. in the CO2 incubator. After 24-hour incubation, 100 μl of each sample solution was added to each well in duplicate, and the 24-well plate was incubated for 72 hours at 37° C. in the CO2 incubator. […] A 0.5% DMSO concentration was used as a negative control. After incubation, the cultured medium was removed, and assayed for extracellular melanin. The cultured medium was centrifuged (900 g, 20 min at 4° C.) to give a supernatant. One millilitre of a mixture of 0.4 M HEPES buffer (pH 6.8) and EtOH (9:1, v/v) was added to 1 ml of the supernatant was separated. The OD at 475 nm of the resulting solution was measured, and the amount of extracellular melanin was determined. The remaining melanocytes were digested by the addition of […] of CMF-D-PBS and trypsinized (0.25% trypsin and 0.1% EDTA at 37° C. for 5 to 10 min), and then incubated for 16 hours at room temperature. Spectrophotometric analysis of the amount of intracellular melanin was then performed at 475 nm.

[2] = tested on: Primary human melanocytes and primary human keratinocytes; assay: Melanin transfer in melanocyte/keratinocyte co-culture, immunofluorescence; format: cell-based; conditions: NHM/NHK co-culture, 24 hours
Protocol: Primary human melanocytes and primary human keratinocytes were cultured in normal Dulbecco's Modified Eagle's Medium (DMEM) containing melanocyte and keratinocyte growth factors respectively. Melanocytes (2.5×10^3 cells/well) were seeded on gelatine treated round coverslips in 24 well plates and were incubated at 37° C. for 72 hours. After the 72 hours the melanocyte medium was removed and medium (with a higher Ca concentration and keratinocyte growth factors) containing the keratinocytes (25×10^3 cells/well) was added to each well. The co-culture was incubated overnight to ensure that the keratinocytes attached. […] After 24 hours the treated cells and untreated cells were analysed with immunofluorescence ([…], et al., 2008). The 24-hour co-cultured cells were washed with PBS and fixed with MeOH (added at a temperature of -20° C.) and incubated for 4 minutes at -20° C. The fixed cells were washed with PBS to remove all the MeOH and incubated for 1 hour at room temperature with goat serum (0.5% in PBS) to remove effects of background noise. […] The washed coverslips were transferred to microscope slides containing mounting media and stored covered at 4° C., until analysed using the fluorescent microscope. The statistical significance in the melanin transfer results obtained for the different treatments, was determined with a student's T-test. […]

Compound	additional melanin extracellularly [1]	additional melanin intracellularly [1]	additional melanin produced than in the untreated cells (total) [1]	melanocyte dendricity and melanosomes in the dendrite tips [2]	melanosomes around the keratinocyte nuclei (positive keratinocytes) ([2]; versus untreated cells)
Cn1c(=O)c2[nH]cnc2n(C)c1=O [theophylline]	19 µg/mL	21 µg/mL	40 µg/mL		
alpha melanocyte stimulating hormone (SYSMEHFRWGKPV; ends and bridges not checked; UniProt P01189 138-150, looked up) [α-MSH, positive control for melanin transfer]				increase in the fluorescence in the tip of the dendrites	higher presence of melanosomes around the keratinocyte nuclei
